Earlier results in patent publication US20010039006A1, “Toxicity typing using embryoid bodies” (priority 1998, published 2001).
Where two headings read alike, the source gives them in different places.

Assays:
[1] = for liver toxicity: known toxicity of the marketed drug
[2] = human, in vivo
[3] = in vivo
[4] = human, in vivo; remark: listed apart in the source

For `CC(=O)Nc1ccc(O)cc1` [acetominophen], the “TOXICITIES LIVER” value ([1]; human, in vivo) is listed as “+”.
For `c1ccc2c(c1)cc1ccc3cccc4ccc2c1c34` [benzo(a)pyrene], the “TOXICITIES CV” value [2] is listed as “+”.
For `N.N.O=C([O-])C1(C(=O)[O-])CCC1.[Pt+2]` [carboplatin], the “TOXICITIES GI” value [3] is listed as “+”.
In the case of `CCOC(=O)C(C)(C)Oc1ccc(Cl)cc1` [clofibrate], the “TOXICITIES LIVER” value ([1]; Table 1) is listed as “ntc”.
In the case of `N=C(N)NCCCCCCC(=O)NC(O)C(=O)NCCCCNCCCN` (stereo not drawn) [deoxyspergualin], the “TOXICITIES CV” value [2] is given as “+”.
For `CCC(=O)O[C@H]1[C@H](O[C@@H]2[C@@H](C)[C@H](O[C@H]3C[C@@](C)(OC)[C@@H](O)[C@H](C)O3)[C@@H](C)C(=O)O[C@H](CC)[C@@](C)(O)[C@H](O)[C@@H](C)C(=O)[C@H](C)C[C@@]2(C)O)O[C@H](C)C[C@@H]1N(C)C` [erythromycin estolate], the “liver toxicity” value [1] is given as “known liver toxicity”.
For `COc1nc(C(Cl)(Cl)Cl)c(Cl)c(OC)c1Cl` [penclomedine], the “TOXICITIES CNS” value [4] is listed as “+”.
For `CN(CCOc1ccc(CC2SC(=O)NC2=O)cc1)c1ccccn1` (stereo not drawn) [rosiglitazone], the “TOXICITIES LIVER” value ([1]; Table 1) is given as “ntc”.
In the case of `Cc1c(C)c2c(c(C)c1O)CCC(C)(COc1ccc(CC3SC(=O)NC3=O)cc1)O2` (stereo not drawn) [troglitazone], the “liver toxicity” value [1] is listed as “rare but severe liver toxicity”.
